Experimental data as given in patent US7579486B2, “Metalloprotein inhibitors” (Regents of the University of California, San Diego, priority 2004, dated 2009).
Like-named read-outs stand apart in the source and are kept apart here.

Key:
[1] = target: T1, human MMP-1 catalytic domain (Homo sapiens, UniProt P03956); assay: MMP-1 fluorescent microplate assay (BIOMOL kit); format: biochemical; settings: fluorescence-based assay, 1 h at 37° C. with inhibitor, pH 7.5; read-out: IC50 against MMP-1
T1 sequence (P03956 100-268): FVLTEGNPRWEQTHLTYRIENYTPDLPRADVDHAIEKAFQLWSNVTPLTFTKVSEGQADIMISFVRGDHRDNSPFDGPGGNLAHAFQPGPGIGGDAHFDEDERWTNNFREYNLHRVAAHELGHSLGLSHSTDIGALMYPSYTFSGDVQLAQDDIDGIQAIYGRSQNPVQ
Excerpt: (§1) Experiments were repeated at least three times.

[2] = target: human MMP-2 catalytic domain (Homo sapiens, UniProt P08253); assay: MMP-2 fluorescent microplate assay (BIOMOL kit); format: biochemical; settings: for IC50: fluorescence-based assay, 1 h at 37° C. with inhibitor, pH 7.5, read-out: IC50 against MMP-2
Sequence of human MMP-2 catalytic domain (P08253 110-452): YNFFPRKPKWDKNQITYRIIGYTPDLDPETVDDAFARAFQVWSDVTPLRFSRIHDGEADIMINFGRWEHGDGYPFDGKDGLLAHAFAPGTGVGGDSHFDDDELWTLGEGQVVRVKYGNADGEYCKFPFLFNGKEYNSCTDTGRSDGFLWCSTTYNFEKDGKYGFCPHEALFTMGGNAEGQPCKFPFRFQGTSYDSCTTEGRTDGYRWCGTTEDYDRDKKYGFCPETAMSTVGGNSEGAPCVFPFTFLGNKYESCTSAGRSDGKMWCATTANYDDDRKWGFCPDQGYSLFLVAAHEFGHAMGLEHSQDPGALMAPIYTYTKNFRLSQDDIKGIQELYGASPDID
Excerpt: as §1

[3] = system: neonatal rat cardiac fibroblasts; assay: Cell invasion assay (Chemicon ECM 555); format: cell-based; settings: 250 nM, 20 h
Method: Cell Invasion Assay. A cell invasion assay kit was purchased from Chemicon International (Cat. No. ECM 555) and the assay was performed as per kit instructions with minor modifications. Rat cardiac fibroblasts (CF) were prepared as previously described (F. J. Villarreal, N. N. Kim, G. D. Ungab, M. P. Printz, W. H. Dillmann, Circulation 1993, 88, 2849). Briefly, CF were prepared from hearts of 1-2 day old Sprague Dawley rats. Following collagenase digestions (4×), non-myocyte cells (mostly fibroblasts) were isolated by Percoll density gradient. The cell suspension was plated onto uncoated tissue culture dishes for 30 min to allow preferential attachment of CF to the bottom of the dish. The non-adherent cells were removed and fresh media (Dulbecco's modified Eagle's media +10% fetal bovine serum) was added. CF were allowed to proliferate to confluence and then trypsinized and frozen at −70° C. Stocks were freshly plated for the experiment and used from second passage. When reaching 90% confluence, cells were serum deprived for 24 h and then treated according to the experimental design (vide infra).
The CF were trypsinized once more and suspended in fresh serum-free media. Inhibitors AM-5 and AM-6 were dissolved in DMSO and diluted 10-fold in serum free media. […] Increased fluorescence indicates the presence of invaded cells. […]

LF = LF (Bacillus anthracis, UniProt P15917); assay: biochemical; design: species or system B. anthracis
Sequence of LF (P15917 34-809 limits assumed): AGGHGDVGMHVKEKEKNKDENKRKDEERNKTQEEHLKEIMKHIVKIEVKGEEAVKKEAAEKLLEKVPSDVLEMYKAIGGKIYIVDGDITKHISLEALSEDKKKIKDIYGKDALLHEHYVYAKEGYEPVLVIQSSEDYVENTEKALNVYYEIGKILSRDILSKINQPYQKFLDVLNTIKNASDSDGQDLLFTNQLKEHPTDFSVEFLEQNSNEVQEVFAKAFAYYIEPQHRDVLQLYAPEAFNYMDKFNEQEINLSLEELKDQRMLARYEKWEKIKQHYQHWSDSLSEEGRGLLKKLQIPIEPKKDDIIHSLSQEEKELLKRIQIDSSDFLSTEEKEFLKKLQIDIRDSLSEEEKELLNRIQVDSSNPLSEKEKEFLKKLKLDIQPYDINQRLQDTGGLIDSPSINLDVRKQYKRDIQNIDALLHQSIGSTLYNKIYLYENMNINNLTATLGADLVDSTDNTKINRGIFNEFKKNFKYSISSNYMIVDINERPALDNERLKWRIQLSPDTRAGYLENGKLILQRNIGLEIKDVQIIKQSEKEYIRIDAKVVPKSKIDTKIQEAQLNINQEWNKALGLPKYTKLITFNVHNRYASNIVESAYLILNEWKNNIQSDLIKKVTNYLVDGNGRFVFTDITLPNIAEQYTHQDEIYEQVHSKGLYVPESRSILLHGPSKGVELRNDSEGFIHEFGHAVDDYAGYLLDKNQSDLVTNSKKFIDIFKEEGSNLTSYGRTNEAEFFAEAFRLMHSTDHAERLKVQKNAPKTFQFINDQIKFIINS

HDAC = assay: Inhibition of histone deacetylase (HDAC); format: biochemical; settings: read-out: Average IC50 against HDAC
[4] = read-out: Average IC50 against LF

| SMILES | IC50 [1] | potency against MMP-2 compared with MMP-3, in words [2] | IC50 [2] | other results |
| --- | --- | --- | --- | --- |
| Cc1cc(=O)c(O)c(C(=O)NCc2ccc(-c3ccc(C#N)cc3)cc2)o1 [AM-5, 3-Hydroxy-6-methyl-pyran-4(1H)-one-2-carboxy-N-(4-(4-cyanophenyl)benzylamide)] | > 50 µM | substantially less potent against MMP-2 | 0.61 µM | reduction of invasion of neonatal rat cardiac fibroblasts through a collagen membrane [3]: 67% |
| Cc1cc(=O)c(O)c(C(=O)NCCc2ccc(-c3ccccc3)cc2)o1 [AM-3] | > 50 µM | – | 27 µM | – |
| O=C(NCc1ccc(-c2ccccc2)cc1)c1occc(=S)c1O [PY-2S (27), 3-Hydroxy-4-thiopyrone-2-carboxy-N-(4-phenylbenzylamide)] | – | – | – | IC50 (LF): 38 µM |
| Cc1cc(=O)c(O)c(C(=O)NCc2ccc(-c3ccc(-c4ccccc4)cc3)cc2)o1 [AM-6, 3-Hydroxy-6-methyl-pyran-4(1H)-one-2-carboxy-N-(4-biphenylbenzylamide)] | > 50 µM | substantially less potent against MMP-2 | > 50 µM | reduction of invasion of neonatal rat cardiac fibroblasts through a collagen membrane [3]: 55% |
| CC(=O)NO [AHA (N-hydroxyacetamide), N-hydroxyacetamide, reference compound] | – | – | – | IC50 (LF; [4]): 11400 µM; IC50 (HDAC): 3200 µM |
| Cc1cc(=O)c(O)c(C(=O)Nc2ccc(-c3ccccc3)cc2)o1 [AM-1, 3-Hydroxy-6-methyl-pyran-4(1H)-one-2-carboxy-N-(4-biphenylamide)] | > 50 µM | – | 36 µM | – |
| COc1ccc(CNC(=O)c2oc(C)cc(=O)c2O)cc1 [AM-4] | > 50 µM | substantially less potent against MMP-2 | > 50 µM | – |
| O=C(NCCc1ccc(-c2ccccc2)cc1)c1occc(=S)c1O [PY-3S (30)] | – | – | – | IC50 (LF): 18.5 µM |
| On1ccccc1=S [1,2-HOPTO] | – | – | – | IC50 (LF; [4]): 3900 µM; IC50 (HDAC): 860 µM |
| Cc1occc(=S)c1O [Thiomaltol, thiomaltol] | – | – | – | IC50 (LF): 260 µM; IC50 (HDAC): 247 µM |
| O=C(NCc1ccc(-c2ccccc2)cc1)c1cccc(=O)n1O [compound 20] | > 12.5 µM | – | 0.9 µM | – |
| Cc1cc(=O)c(O)c(C(=O)NCc2ccc(-c3ccccc3)cc2)o1 [AM-2, 3-Hydroxy-6-methyl-pyran-4(1)-one-2-carboxy-N-(4-phenylbenzylamide)] | > 50 µM | substantially less potent against MMP-2 | 9.3 µM | – |
